Values of other authors in patent US20140248345A1 (Merck Sharp & Dohme Corp., priority 2011, published 2014).

Tested on: human Type 2 diabetics
Settings: oral administration

Row | Structure (SMILES) | HbA1c levels | fasting glucose and postprandial glucose excursion
1 | N[C@@H](CC(=O)N1CCn2c(nnc2C(F)(F)F)C1)Cc1cc(F)c(F)cc1F [sitagliptin, (2R)-4-oxo-4-[3-(trifluoromethyl)-5,6-dihydro[1,2,4]triazolo[4,3-a]pyrazin-7(8H)-yl]-1-(2,4,5-trifluorophenyl)butan-2-amine] | significantly reduced | reduce fasting glucose and postprandial glucose excursion
2 | N#C[C@@H]1CCCN1C(=O)CNC12CC3CC(CC(O)(C3)C1)C2 [vildagliptin, (S)-1-[(3-hydroxy-1-adamantyl)amino]acetyl-2-cyano-pyrrolidine] | significantly reduced | reduce fasting glucose and postprandial glucose excursion
